From patent publication US12678443B2, “Medicament for preventing and/or treating dry eye” (Santen Pharmaceutical Co., Ltd., priority 2021, dated 2026)

Assays:
[1] = cited from earlier work; for secretion of tears and tear proteins: Patent Literature 1
[2] = tested on: normal male cynomolgus monkeys; test: Tear film break-up time (TBUT) after single ocular instillation (Tests 1 and 2); assay type: in vivo, cynomolgus monkey; settings: for extension of TBUT: single ocular instillation 1% (w/v) ophthalmic solution, FIG. 2
[3] = tested on: dry-eye model SD (Sprague-Dawley) rat; test: Quantity of tears by Schirmer strip in the exorbital-lacrimal-gland-removed dry-eye model (Tests 3 and 4); assay type: in vivo; settings: for Incremental difference in Schirmer's test at 0.5 hours after ocular instillation / Incremental difference in Schirmer's test at 8 hours after ocular instillation: difference from vehicle-instilled group, rat dry-eye model
Description: A somnopentyl injection five-fold diluted with physiological saline was intraperitoneally administered to a normal male SD (Sprague-Dawley) rat by 2.5 mL/kg, and the rat was given general anesthesia, followed by keeping the anesthetized state by inhalation of about 1 to 3% isoflurane. Then, the skin on each cheek was incised to remove the exorbital lacrimal gland, followed by suturation with a Michel suture clamp. In this test, an individual wherein reduction of tears was confirmed after 13 weeks from the removal of exorbital lacrimal gland was included as the experimental animal.
Half an hour after treatment of general anesthesia, Schirmer strip (1 mm×17 mm) was inserted to conjunctival sac of the lower eyelid of a rat, and then after 1 minute of the insertion, the wet part of the Schirmer strip was measured in increments of 0.5 mm. (N=14 or 16 eyes)
The quantity of tears was measured in a similar manner to Test 3. (N=10 eyes)

β1 adrenergic receptors = β1 adrenergic receptors (Homo sapiens, UniProt P08588); settings: cited from earlier work
[4] = tested on: normal male cynomolgus monkeys; test: Intraocular pressure test, twice daily repeated instillation (Test 5); assay type: in vivo, cynomolgus monkey; settings: 0.01% and 0.1% ophthalmic solutions, twice daily repeatedly, Day 1, 7, 14; FIG. 4
Description: Specifically, one drop of 0.4% oxybuprocaine hydrochloride ophthalmic solution (trade name: Benoxil (registered trademark) ophthalmic solution 0.4%) was instilled to the right eye so as to provide surface anesthesia, and then the intraocular pressure was measured three times with Mentor tonometer (applanation), followed by calculation of the average. (N=6 eyes)

[5] = 0.001% ophthalmic solution, 8 hours
[6] = 0.01% ophthalmic solution, 8 hours
[7] = 0.1% ophthalmic solution, 8 hours
[8] = 1% ophthalmic solution, 8 hours

Chain of β1 adrenergic receptors (P08588 whole entry): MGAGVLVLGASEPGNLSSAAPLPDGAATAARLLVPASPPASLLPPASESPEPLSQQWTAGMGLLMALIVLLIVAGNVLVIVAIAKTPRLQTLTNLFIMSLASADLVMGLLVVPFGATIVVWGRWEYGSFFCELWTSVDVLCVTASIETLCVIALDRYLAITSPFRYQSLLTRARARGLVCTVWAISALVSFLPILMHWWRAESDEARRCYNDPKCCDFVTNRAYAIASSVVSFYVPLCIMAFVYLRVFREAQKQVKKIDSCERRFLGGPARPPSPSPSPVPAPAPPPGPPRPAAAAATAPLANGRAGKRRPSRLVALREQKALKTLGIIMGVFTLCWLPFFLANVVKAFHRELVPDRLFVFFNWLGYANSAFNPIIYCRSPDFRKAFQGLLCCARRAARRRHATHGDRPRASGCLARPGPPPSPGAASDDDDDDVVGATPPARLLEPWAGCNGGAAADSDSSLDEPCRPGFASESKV

Compound	extension of TBUT [2]	Incremental difference in Schirmer's test at 0.5 hours after ocular instillation ([3]; 0.001% ophthalmic solution) [mm/min]	Incremental difference in Schirmer's test at 8 hours after ocular instillation [3, 5] [mm/min]	Incremental difference in Schirmer's test at 0.5 hours after ocular instillation ([3]; 0.01% ophthalmic solution) [mm/min]	Incremental difference in Schirmer's test at 8 hours after ocular instillation [3, 6] [mm/min]	Incremental difference in Schirmer's test at 0.5 hours after ocular instillation ([3]; 0.1% ophthalmic solution) [mm/min]	Incremental difference in Schirmer's test at 8 hours after ocular instillation [3, 7] [mm/min]	Incremental difference in Schirmer's test at 0.5 hours after ocular instillation ([3]; 1% ophthalmic solution) [mm/min]	Incremental difference in Schirmer's test at 8 hours after ocular instillation [3, 8] [mm/min]	secretion of tears and tear proteins [1]	further results
CC(C)(C)NCC(O)c1ccc(O)c(CO)c1 (stereo not shown) [salbutamol]	–	–	–	–	–	–	–	–	–	–	lacrimal secretion ([1]; Patent Literature 2): confirmed to enhance lacrimal secretion; effects on the treatment of dry eye ([1]; Patent Literature 3): did not have sufficient effects
CC(C)(C)NCC(O)c1cc(Cl)c(N)c(Cl)c1 (stereo not shown) [clenbuterol]	not confirmed	2.0	0.3	2.7	1.1	3.6	2.4	3.0	3.9	confirmed to enhance	–
COc1ccc(CC(C)(C)NC[C@H](O)c2cc(O)cc3c2OCC(=O)N3)cc1 [olodaterol, 6-hydroxy-8-((1R)-1-hydroxy-2-{[2-(4-methoxyphenyl)-1,1-dimethylethyl]amino}-ethyl)-2H-1,4-benzoxazin-3-(4H)-one]	–	7.2	2.1	6.9	2.8	–	–	–	–	–	intrinsic activity against β1 adrenergic receptors (β1 adrenergic receptors): weak intrinsic activity; intraocular pressure [4]: did not show increase and/or decrease; effect of stabilizing tear film ([2]; low concentration of 0.0001%, FIG. 1): confirmed to show the effect of stabilizing tear film; TBUT-extending effect ([2]; single ocular instillation 0.0001, 0.001, 0.01% (w/v), 20 μL/eye, 15, 30, 60 minutes, FIG. 1): confirmed in a concentration-dependent manner; Incremental difference in Schirmer's test at 0.5 hours after ocular instillation ([3]; 0.00001% ophthalmic solution): 2.8 mm/min; Incremental difference in Schirmer's test at 8 hours after ocular instillation ([3]; 0.00001% ophthalmic solution, 8 hours): 0.4 mm/min; Incremental difference in Schirmer's test at 0.5 hours after ocular instillation ([3]; 0.0001% ophthalmic solution): 6.0 mm/min; Incremental difference in Schirmer's test at 8 hours after ocular instillation ([3]; 0.0001% ophthalmic solution, 8 hours): 1.7 mm/min; lacrimal secretion at 8 hours after ocular instillation ([3]; 0.0001 to 0.01% instilled groups, 8 hours, FIG. 3): highly enhanced; increase of tear volumes at 16 hours after ocular instillation ([3]; 0.001 and 0.01% instilled groups, 16 hours, FIG. 3): increase of tear volumes was observed; lacrimal secretion ([3]; olodaterol-instilled groups 0.00001 to 0.01%, FIG. 3): enhanced
CC(Cc1ccc(O)cc1)NCC(O)c1cc(O)cc(O)c1 (stereo not shown) [fenoterol]	not confirmed	1.8	0.0	4.8	0.2	6.1	0.9	3.6	1.1	confirmed to enhance	–
